From US11547690B1, “Chemotherapeutic self-nanoemulsifying drug delivery systems and uses thereof” (KING ABDULAZIZ UNIVERSITY, priority 2022, dated 2023)
≈ marks a conversion by molar mass, not a printed value. Like-named read-outs stand apart in the source and are kept apart here.

Experiments:
[1] = Equilibrium solubility evaluation in lipids and cosolvents; format: physicochemical; settings: for solubility at 72 h: 37 °C, thermodynamic from solid, read-out: solubility of PTX
Experimental: Solubility evaluation of PTX was carried out in various oils and cosolvents till attaining equilibrium by addition of excess quantity of drug to 1 gm of each of the excipient in culture vials and mixed well using vortex mixer (Remi Instruments, Mumbai, India). The sealed vials were kept on water bath shaker at 37±0.5° C. for 72 h for 150 strokes per minute. After specified time period, the samples were centrifuged at 3,000 rpm (402.5×g) for 15 minutes using a laboratory centrifuge (Remi Instruments, Mumbai, India). Drug was extracted in acetonitrile and supernatant fraction was filtered through 0.45 μm membrane filter, suitably diluted and analyzed by previously developed HPLC method.

[2] = cited from earlier work

## CC(=O)O[C@H]1C(=O)[C@@]2(C)[C@H]([C@H](OC(=O)c3ccccc3)[C@]3(O)C[C@H](OC(=O)[C@H](O)[C@@H](NC(=O)c4ccccc4)c4ccccc4)C(C)=C1C3(C)C)[C@]1(OC(C)=O)CO[C@@H]1C[C@@H]2O [PTX, Paclitaxel]
[1]; aqueous with cosolvent or surfactant or cyclodextrin, in Tween® 80, 37±0.5° C., 72 h
  solubility at 72 h: 78 mg/mL (≈ 91.3 mM)
[1]; aqueous with cosolvent or surfactant or cyclodextrin, in surfactin
  solubility at 72 h: 106 mg/mL (≈ 124 mM)
[1]; organic solvent or mixture, in Transcutol® HP, 37±0.5° C., 72 h
  solubility at 72 h: 235 mg/mL (≈ 275 mM)
[1]; in 1:1 ratio mixture of ethyl oleate:Plurol® Oleique, 37±0.5° C., 72 h
  solubility of PTX: 198.5 mg/mL
[2]
  oral bioavailability: 5%
